Read-outs that look alike come from different tables or passages of the source.
What was measured:
[1] = Cell viability assay (MTT, Cell Proliferation Kit I); format: cell-based, feline; conditions: cat
Procedure: (§1) The Crandell-Reese feline kidney (CRFK) cells utilized in this study were purchased from American Type Culture Collection (ATCC, Manassas, VA, USA), and cultured in Eagle’s Minimum Essential Medium (EMEM) medium supplemented with 10% fetal bovine serum (FBS), 1% antibiotics (penicillin and streptomycin), and 1% non-essential amino acids. The reagents were obtained from ATCC. The CRFK cells were incubated at 37 °C with 5% CO2.
(§2) The cell viability of CRFK cells was measured using a Cell Proliferation Kit I (MTT) (Roche Applied Science, Indianapolis, IN, USA), following the manufacturer’s instructions. […] After incubation for 48 h, 10 μL of MTT solution (0.5 mg/mL in phosphate-buffered saline) was added to each well. The plate was incubated for 4 h at 37 °C to allow the formation of formazan crystals. Following incubation, 1% sodium dodecyl sulfate (100 μL) solution was added to dissolve the crystals.

[2] = system: CRFK cells; test: as above; format: cell-based, feline
Procedure: as §1, §2

[3] = system: FIPV serotype II strain (WSU-79-1146); test: Antiviral efficacy against FIPV replication in CRFK cells, viral load by qRT-PCR; format: cell-based, feline infectious peritonitis virus; conditions: for Selectivity index (SI) = (mean CC50)/(mean EC50): against FIPV in CRFK cells; for Viral load (FIPV RNA copies) / FIPV viral copies with GS441524: GS441524 25 µM; for Viral load (FIPV RNA copies): inoculum […] 10^4 TCID50/mL
[4] = system: CRFK cells; conditions: 48 h
[5] = system: FIPV; parameters: method as in earlier work; conditions: ref 39 (Jiao, Yan et al.); cited from earlier work
[6] = system: COVID-19; parameters: method as in PMID 34933447; conditions: co-administered with ritonavir within 3 to 5 days of COVID-19 symptom onset; cited from earlier work
[7] = Alphacoronavirus 1, CRFK, 48 h, CRFK cells, FIPV […] 10^4 TCID50/mL, 48 h, qRT-PCR, read-out: 50% effective concentration (EC50) against FIPV replication
[8] = CRFK cells (Crandell-Reese feline kidney), CRFK cells treated with drugs for 48 h, MTT assay (Figure 5), read-out: 50% cytotoxic concentration (CC50)
[9] = CRFK cells treated with drugs for 48 h, MTT assay (Figure 5), read-out: 50% cytotoxic concentration (CC50)
[10] = CRFK cells, FIPV […] 10^4 TCID50/mL, 48 h, qRT-PCR, read-out: 50% effective concentration (EC50) against FIPV replication

SMILES: N#CC[C@H](C1CCCC1)n1cc(-c2ncnc3[nH]ccc23)cn1 [Ruxolitinib]
- CC50 at 48 h ([1]; 50% cytotoxic concentration (CC50)): 338 µM
- CC50 ([2]; cat, 48 h): 338 µM
- EC50 ([3]; Alphacoronavirus 1, CRFK, 48 h, read-out: 50% effective concentration (EC50) against FIPV replication): 43.6 µM
- Lowest concentration at which cytotoxicity was observed ([4]; CRFK cells, cytotoxicity assay): 250 µM

SMILES: CC(C)c1nc(CN(C)C(=O)N[C@H](C(=O)N[C@@H](Cc2ccccc2)C[C@H](O)[C@H](Cc2ccccc2)NC(=O)OCc2cncs2)C(C)C)cs1 [Ritonavir]
- Concentration as high as which the drug could be used safely with minimal cytotoxicity ([2]; cat, 48 h): 16 µM
- Cytopathic effects (CPEs) in FIPV-infected cells ([3]; 5 µM, 10-fold dilutions): induced CPEs
- Cytopathic effects (CPEs) in FIPV-infected cells ([3]; 50 µM, 10-fold dilutions): induced CPEs
- EC50 [3, 7]: 17.6 µM
- Highest concentration with essentially no cytotoxicity ([4]; cat): 16 µM
- Lowest concentration at which cytotoxicity was observed ([4]; cat): 31 µM

SMILES: C/C(O)=C(\C#N)C(=O)Nc1ccc(C(F)(F)F)cc1 [Teriflunomide]
- CC50 at 48 h [1, 8]: 134 µM
- Concentration as high as which the drug could be used safely with minimal cytotoxicity ([2]; CRFK cells, 48 h, MTT staining): 62.5 µM
- EC50 [3, 7]: 49.6 µM
- Highest concentration with essentially no cytotoxicity ([4]; cat): 63 µM

SMILES: CC(C)C(=O)OC[C@H]1O[C@@H](n2ccc(NO)nc2=O)[C@H](O)[C@@H]1O [Molnupiravir]
- CC50 at 48 h [1, 8]: 235 µM
- CC50 [2, 9]: 235 µM
- Concentration as high as which the drug could be used safely with minimal cytotoxicity ([2]; CRFK cells, 48 h, MTT staining): 63 µM
- EC50 [3, 7]: 8 µM
- EC50 [3, 10]: 8.04 µM
- Selectivity index (SI) = (mean CC50)/(mean EC50) [3]: 29.3
- Selectivity index (SI) = (mean CC50)/(mean EC50) ([3]; listed as molnupiravir): 29.27
- Highest concentration with essentially no cytotoxicity ([4]; CRFK cells, CellTox Green): 63 µM

SMILES: CC(C)(C)[C@H](NC(=O)C(F)(F)F)C(=O)N1C[C@H]2[C@@H]([C@H]1C(=O)N[C@H](C#N)C[C@@H]1CCNC1=O)C2(C)C [Nirmatrelvir]
- CC50 at 48 h [1, 9]: 279 µM
- Concentration as high as which the drug could be used safely with minimal cytotoxicity ([2]; CRFK cells, 48 h, MTT staining): 63 µM
- Cytopathic effects (CPEs) in FIPV-infected cells ([3]; 5 µM, 10-fold dilutions): no CPEs in cells
- EC50 ([3]; Alphacoronavirus 1, CRFK, 48 h, read-out: 50% effective concentration (EC50) against FIPV replication, CRFK cells, FIPV […] 10^4 TCID50/mL, 48 h, qRT-PCR): 2.46 µM
- inhibition at 5 µM ([3]; Alphacoronavirus 1, CRFK, read-out: Inhibition of FIPV replication): 80%
- Selectivity index (SI) = (mean CC50)/(mean EC50) [3]: 113.7
- Selectivity index (SI) = (mean CC50)/(mean EC50) ([3]; listed as nirmatrelvir): 113.67
- EC50 ([3]; read-out: 50% effective concentration (EC50) against FIPV replication, CRFK cells, FIPV […] 10^4 TCID50/mL, 48 h, qRT-PCR): 2.5 µM
- Highest concentration with essentially no cytotoxicity ([4]; CRFK cells, CellTox Green): 63 µM
- EC50 [5]: 2.52 µM
- Reduction in hospitalizations and death [6]: 89%

SMILES: N#C[C@@]1(c2ccc3c(N)ncnn23)O[C@H](CO)[C@@H](O)[C@H]1O [GS441524, GS-441524]
- CC50 at 48 h [1, 9]: 260 µM
- CC50 [2, 9]: 260 µM
- Cytopathic effects (CPEs) in FIPV-infected cells ([3]; 0.5 µM, 10-fold dilutions): no CPEs observed in cells
- Reduction in FIPV copy number ([3]; 0.98 µM, two-fold dilutions, 48 hpi): 22.5%
- Lowest concentration with anti-FIPV efficacy compared to no-drug group ([3]; 10-fold dilutions, 48 hpi): 0.5 µM
- EC50 [3, 7]: 1.57 µM
- inhibition at 0.5 µM ([3]; Alphacoronavirus 1, CRFK, 0.5 µM, 10-fold dilutions, 48 hpi): 85%
- inhibition at […] ([3]; Alphacoronavirus 1, CRFK, 7.8 µM, two-fold dilutions, 48 hpi): 98.3%
- EC50 [3, 10]: 1.6 µM
- Viral load (FIPV RNA copies) ([3]; 0 hpi (applied at inoculation, remained), 24 h): 2.58 × 10^4 per ml
- Viral load (FIPV RNA copies) ([3]; 0 hpi, 48 h): 1.97 × 10^4 per ml
- Viral load (FIPV RNA copies) ([3]; 0 hpi, 72 h): 2.04 × 10^4 per ml
- Viral load (FIPV RNA copies) ([3]; +1 hpi (applied 1 h post inoculation), 24 h): 2.84 × 10^4 per ml
- Viral load (FIPV RNA copies) ([3]; +1 hpi, 48 h): 1.52 × 10^4 per ml
- Viral load (FIPV RNA copies) ([3]; +1 hpi, 72 h): 1.39 × 10^4 per ml
- FIPV viral copies with GS441524 ([3]; FIPV inoculum […] 10^2 TCID50/mL, 48 h): 4.60 × 10^1 per ml
- FIPV viral copies with GS441524 ([3]; FIPV inoculum […] 10^2 TCID50/mL, 72 h): 2.36 × 10^1 per ml
- FIPV viral copies with GS441524 ([3]; FIPV inoculum […] 10^3 TCID50/mL, 48 h): 3.48 × 10^2 per ml
- FIPV viral copies with GS441524 ([3]; FIPV inoculum […] 10^3 TCID50/mL, 72 h): 2.09 × 10^2 per ml
- FIPV viral copies with GS441524 ([3]; FIPV inoculum […] 10^4 TCID50/mL, 48 h): 2.76 × 10^3 per ml
- FIPV viral copies with GS441524 ([3]; FIPV inoculum […] 10^4 TCID50/mL, 72 h): 3.24 × 10^3 per ml
- Viral load (FIPV RNA copies) ([3]; −2 & +1 hpi (applied 2 h before, removed, applied again at 1 hpi), 24 h): 2.47 × 10^4 per ml
- Viral load (FIPV RNA copies) ([3]; −2 hpi (applied 2 h before inoculation, removed before inoculation), 24 h): 1.97 × 10^4 per ml
- Viral load (FIPV RNA copies) ([3]; −2 hpi, 48 h): 2.94 × 10^5 per ml
- Viral load (FIPV RNA copies) ([3]; −2 hpi, 72 h): 6.89 × 10^6 per ml
- Lowest concentration with antiviral efficacy ([3]; two-fold dilutions, 48 hpi): 0.98 µM

From publication PMC10459838 (Veterinary Sciences, 2023)
